Columns and labels:
JAK2/STAT5 = JAK2/STAT5 activation in human primary triple-negative breast tumors grown in immunodeficient mice; assay type: in vivo; conditions: 30 mg/kg BEZ235 for 4 days vs vehicle
Protocol: FIG. 4. BEZ235 treatment activates JAK2/STAT5 and IL-8 secretion in human primary triple-negative breast tumors Immunoblots of lysates from primary triple-negative breast tumors grown in immunodeficient mice and treated for 4 days with 30 mg/kg BEZ235 or vehicle (VHC). pJAK2 levels were measured in triplicate by ELISA and normalized to total JAK2 levels (Y-axis).
(§1) Cells for Western Blotting and ELISA were lysed with RIPA buffer. […]
For assessing pJAK2 levels, an ELISA assay (Tyr1007/1008, Invitrogen) was applied because of cross-reactivity of all pJAK2 antibodies tested. Interleukin-8 levels in RIPA lysates, cell culture supernatants and mouse tail vein blood plasma were measured by ELISA, as well (Biolegend). […]

pS6 = test: Target inhibition after single doses: pS6 levels in breast cancer lines; assay type: cell-based, human; conditions: up to 20 hours after treatment, MDA 468, MDA 231 LM2 and mouse 4T-1 breast cancer lines
Protocol: MDA231, lung metastatic subline MDA231 LM2 (Minn et al., 2005) and SUM159 human breast cancer cells, as well as the Balb/c tumor-derived mammary cancer lines 4T-1 and 168FARN (Aslakson and Miller, 1992), were propagated as previously described. All other cell lines were obtained from and were cultured according to the protocols of ATCC. For treatment with inhibitors, cells were synchronized without serum overnight and then supplemented with culture medium containing the inhibitor(s). For experiments with doxycycline-inducible shRNAs, 500 ng/ml of doxycycline (Sigma) was added to the medium and experiments performed 48 h later. Cell viability assays, cell cycle and cell death measurements were performed at 0.5% FCS in order to avoid masking effects of growth factors present under full-serum conditions.
as §1
The present inventors applied single doses of COMPOUND A, a dual PI3K and mTOR inhibitor, and analyzed target inhibition and potential signaling pathway crosstalks after 2, 4, 8 and 20 h hours of treatment. […] While RAD001 readily activated JAK2 starting at 4 hours of treatment, they observed a later response with BKM120 treatment starting at 8 hours after adding the compound. […]

Cn1c(=O)n(-c2ccc(C(C)(C)C#N)cc2)c2c3cc(-c4cnc5ccccc5c4)ccc3ncc21 [COMPOUND A, 2-methyl-2-[4-(3-methyl-2-oxo-8-quinolin-3-yl-2,3-dihydro-imidazo[4,5-c]quinolin-1-yl)-phenyl]-propionitrile]
JAK2/STAT5 activation (pJAK2 normalized to total JAK2, immunoblots) (JAK2/STAT5): activates
pS6 levels (pS6): completely blocked
